This assay deals with T1, human B-Raf (Homo sapiens, UniProt P15056).
T1 construct: Flag; GST; made in house; host or cells: Sf9 insect cells (B-Raf); E. coli (MEK1-GST)
As to the kind of experiment: B-Raf Kinase to MEK1 ELISA. The following applies: for inhibition at 10 µM: read-out: % Inhib./10 uM. In kind it is biochemical. The source says: TITLE: B-Raf Kinase to MEK1 ELISA
PURPOSE: To discover B-Raf Kinase inhibitors that can inhibit growth of tumor cells which contain oncogenic forms of Receptor Tyrosine Kinases or K-Ras, or B-Raf kinase.
Reagents: Flag/GST-tagged recombinant human B-Raf produced in Sf9 insect cells, human non-active Mek-1-GST (recombinant protein produced in E. coli); and a phospho-MEK1 specific poly-clonal Ab from Cell Signaling Technology (cat. #9121).
B-Raf1 Kinase Assay Procedure:
B-Raf-1 is used to phosphorylate GST-MEK1. MEK1 phosphorylation is measured by a phospho-specific antibody (from Cell Signaling Technology, cat. #9121) that detects phosphorylation of two serine residues at positions 217 and 221 on MEK1.
B-Raf Assay Stock Solutions:
1. Assay Dilution Buffer (ADB): 20 mM MOPS, pH 7.2, 25 mM β-glycerol phosphate, 5 mM EGTA, 1 mM sodium orthovanadate, 1 mM dithiothreitol.
2. Magnesium/ATP Cocktail: 200 μM cold ATP and 40 mM magnesium chloride in ADB.
3. Active Kinase: Active B-Raf: used at ˜20 ng per assay point.
4. Non-active GST-MEK1: Use at 100 nM (50 nM final).
6. Anti-GST Ab (Pharmacia)
7. Anti-rabbit Ab/Europium conjugate (Wallac)
1. Add 25 μl of ADB containing B-Raf and Mek per assay (i.e. per well of a 96 well plate)
2. Add 25 μl of 0.2 mM ATP and 40 mM magnesium chloride in ADB.
3. Incubate for 60 minutes at RT in a shaking incubator.
4. Transfer this mixture to an anti-GST Ab coated 96 well plate (Nunc Immunosorb plates coated o/n with a-GST.
5. Incubate for 60 minutes at 30° C. in a shaking incubator
6. Wash 3× with TBST, add Anti-Phospho MEK1 (1:1000)
7. Incubate for 60 minutes at 30° C. in a shaking incubator
8. Wash 3× with TBST, add Anti-rabbit Ab/Europium conjugate (Wallac) (1:500)
9. Incubate for 60 minutes at 30° C. in a shaking incubator
10. Add 100 ul of Wallac Delfia Enhancement Solution and shake for 10 minutes.
11. Read plates in Wallac Victor model Plate Reader.
12. Collect data analyze in Excel for single point and IC50 determinations.
Typically Raf-1 assay is run at cpd concentrations from 10 μM to 30 nM in half log dilutions. (% inhibition is determined for each cpd concentration)

The mark [1] stands for this setting: median, cpd concentrations from 10 μM to 30 nM in half log dilutions, read-out: Median IC50.

The record followed here is patent US20070219186A1, “Pyrazolo[1,5-A]pyrimidine derivatives and methods of use thereof” (priority 2006, published 2007).

pIC50: −log10 of the molar value. Where two headings read alike, the source gives them in different places. A value given as a limit tells only on which side of the number the result lay.

T1 sequence (P15056 whole entry): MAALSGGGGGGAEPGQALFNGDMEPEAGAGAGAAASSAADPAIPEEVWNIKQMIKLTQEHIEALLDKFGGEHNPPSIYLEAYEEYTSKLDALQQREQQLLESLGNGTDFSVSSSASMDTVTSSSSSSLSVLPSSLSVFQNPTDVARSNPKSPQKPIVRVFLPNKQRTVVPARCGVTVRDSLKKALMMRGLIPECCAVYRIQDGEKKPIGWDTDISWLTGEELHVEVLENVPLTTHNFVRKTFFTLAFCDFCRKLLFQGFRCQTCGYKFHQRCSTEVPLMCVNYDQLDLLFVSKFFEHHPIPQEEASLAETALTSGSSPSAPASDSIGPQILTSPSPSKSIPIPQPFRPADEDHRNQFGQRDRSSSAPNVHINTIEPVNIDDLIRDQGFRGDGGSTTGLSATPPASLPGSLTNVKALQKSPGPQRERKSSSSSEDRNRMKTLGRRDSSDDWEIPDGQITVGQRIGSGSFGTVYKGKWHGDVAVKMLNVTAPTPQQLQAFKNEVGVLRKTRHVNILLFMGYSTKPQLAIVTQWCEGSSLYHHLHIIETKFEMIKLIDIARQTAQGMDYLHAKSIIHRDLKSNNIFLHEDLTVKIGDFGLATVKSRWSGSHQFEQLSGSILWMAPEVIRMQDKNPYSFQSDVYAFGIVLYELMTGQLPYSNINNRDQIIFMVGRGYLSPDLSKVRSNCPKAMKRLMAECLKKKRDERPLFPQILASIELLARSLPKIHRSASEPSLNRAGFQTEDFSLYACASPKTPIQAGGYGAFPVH

Consider `COc1ccc(C(=O)Nc2cccc(-c3ccnc4c(Br)cnn34)c2)cc1C(F)(F)F` [Example 162, N-[3-(3-bromopyrazolo[1,5-a]pyrimidin-7-yl)phenyl]-4-methoxy-3-(trifluoromethyl)benzamide], for which the pIC50 is 5.68 and the inhibition at 10 µM worked out at 75%. For `Cc1cc(-c2cccc(NC(=O)c3cccc(C(F)(F)F)c3)c2)n2nc(-c3ccncc3)cc2n1` [Example 302, N-[3-(5-methyl-2-pyridin-4-ylpyrazolo[1,5-a]pyrimidin-7-yl)phenyl]-3-(trifluoromethyl)benzamide], the inhibition at 10 µM stood at 72%. For the same compound, the pIC50 under setting [1] is 6.10. For `O=C(Nc1cccc(-c2ccnc3cc(N4CCOCC4)nn23)c1)Nc1ccc(F)c(C(F)(F)F)c1` [Example 202, N-[4-fluoro-3-(trifluoromethyl)phenyl]-N′-[3-(2-morpholin-4-ylpyrazolo[1,5-a]pyrimidin-7-yl)phenyl]urea], the inhibition at 10 µM was found to be 96%. Also, the pIC50 under setting [1] was 6.92. As to `NC(=O)c1cnn2c(-c3cccc(NC(=O)c4cccc(C(F)(F)F)c4)c3)ccnc12` [Example 61, 7-(3-{[3-(trifluoromethyl)benzoyl]amino}phenyl)pyrazolo[1,5-a]pyrimidine-3-carboxamide], the inhibition at 10 µM is 16%. Also, under setting [1], the pIC50 was less than 5.00. Turning to `CC(=O)c1ccccc1-c1cnn2c(-c3cccc(NC(=O)c4cccc(C(F)(F)F)c4)c3)ccnc12` [Example 298, N-{3-[3-(2-acetylphenyl)pyrazolo[1,5-a]pyrimidin-7-yl]phenyl}-3-(trifluoromethyl)benzamide], the pIC50 is 6.58 and the inhibition at 10 µM was 69%.

On to `CCOC(=O)c1cnn2c(-c3cccc(NC(=O)Cc4ccc(Cl)c(Cl)c4)c3)ccnc12` [Example 95, ethyl 7-(3-{[(3,4-dichlorophenyl)acetyl]amino}phenyl)pyrazolo[1,5-a]pyrimidine-3-carboxylate], for which the inhibition at 10 µM was found to be 39%. Further, the pIC50 under setting [1] is less than 5.00. With `O=C(Nc1cccc(-c2ccnc3cc(-c4ccc(Br)cc4)nn23)c1)c1cccc(C(F)(F)F)c1` [Example 287, N-{3-[2-(4-bromophenyl)pyrazolo[1,5-a]pyrimidin-7-yl]phenyl}-3-(trifluoromethyl)benzamide], the inhibition at 10 µM is 12%. In addition, under setting [1], the pIC50 was less than 5.00. For `CCOC(=O)c1cnn2c(-c3cccc(NC(=O)c4ccc(C(F)(F)F)cc4)c3)ccnc12` [Example 10, ethyl 7-(3-{[4-(trifluoromethyl)benzoyl]amino}phenyl)pyrazolo[1,5-a]pyrimidine-3-carboxylate], in that order: 27% and less than 5.00. `CN1CCN(CCCC#Cc2cnn3c(-c4cccc(NC(=O)c5cccc(C(F)(F)F)c5)c4)ccnc23)CC1` [Example 279, N-(3-{3-[5-(4-methylpiperazin-1-yl)pent-1-yn-1-yl]pyrazolo[1,5-a]pyrimidin-7-yl}phenyl)-3-(trifluoromethyl)benzamide] showed a pIC50 of 6.07. Take `CN1CCN(CCCNC(=O)c2cnn3c(-c4cccc(NC(=O)c5cccc(C(F)(F)F)c5)c4)ccnc23)CC1` [Example 50, N-[3-(4-methylpiperazin-1-yl)propyl]-7-(3-{[3-(trifluoromethyl)benzoyl]amino}phenyl)pyrazolo[1,5-a]pyrimidine-3-carboxamide]: the inhibition at 10 µM was 42%. For the same compound, the pIC50 under setting [1] is 5.10. As to `Cc1cnc2c(Br)cnn2c1-c1cccc(NC(=O)c2cccc(C(F)(F)F)c2)c1` [Example 178, N-[3-(3-bromo-6-methylpyrazolo[1,5-a]pyrimidin-7-yl)phenyl]-3-(trifluoromethyl)benzamide], the pIC50 was 5.50 and the inhibition at 10 µM was 67%. With `CN(C)c1ccc(-c2cnn3c(-c4cccc(NC(=O)c5cccc(C(F)(F)F)c5)c4)ccnc23)cc1` [Example 157, N-(3-{3-[4-(dimethylamino)phenyl]pyrazolo[1,5-a]pyrimidin-7-yl}phenyl)-3-(trifluoromethyl)benzamide], the pIC50 is 6.52 and the inhibition at 10 µM was determined as 66%. For `CCOC(=O)c1cnn2c(-c3ccc(N4CC(C)OC(C)C4)c(NC(=O)c4cccc(C(F)(F)F)c4)c3)ccnc12` (centres unmarked) [Example 87, ethyl 7-(4-(2,6-dimethylmorpholin-4-yl)-3-{[3-(trifluoromethyl)benzoyl]amino}phenyl)pyrazolo[1,5-a]pyrimidine-3-carboxylate], the inhibition at 10 µM was 9%. For the same compound, under setting [1], the pIC50 was less than 5.00. For the compound `CCOC(=O)c1cnn2c(-c3cccc(NC(=O)c4nn(-c5ccccc5)nc4C)c3)ccnc12` [Example 220, ethyl7-(3-{[(5-methyl-2-phenyl-2H-1,2,3-triazol-4-yl)carbonyl]amino}phenyl)pyrazolo[1,5-a]pyrimidine-3-carboxylate], the inhibition at 10 µM came to 30%. Moreover, under setting [1], the pIC50 is less than 5.00. In the case of `CCOC(=O)c1cnn2c(-c3cccc(NC(=O)Nc4cccc(C(F)(F)F)c4)c3)ccnc12` [Example 33, ethyl 7-{3-[({[3-(trifluoromethyl)phenyl]amino}carbonyl)amino]phenyl}pyrazolo[1,5-a]pyrimidine-3-carboxylate], the inhibition at 10 µM stood at 80%. Further, the pIC50 under setting [1] was 6.17. In the case of `CCOC(=O)c1cnn2c(-c3cccc(NC(=O)c4ccc(Cl)c(C(F)(F)F)c4)c3)ccnc12` [Example 103, ethyl 7-(3-{[4-chloro-3-(trifluoromethyl)benzoyl]amino}phenyl)pyrazolo[1,5-a]pyrimidine-3-carboxylate], the inhibition at 10 µM was determined as 59%. Moreover, the pIC50 under setting [1] is 5.60.

Turning to `O=C1CN(c2cc3nccc(-c4cccc(NC(=O)c5cccc(C(F)(F)F)c5)c4)n3n2)CCN1` [Example 249, N-{3-[2-(3-oxopiperazin-1-yl)pyrazolo[1,5-a]pyrimidin-7-yl]phenyl}-3-(trifluoromethyl)benzamide], the inhibition at 10 µM was 76%. For the same compound, the pIC50 under setting [1] was 6.33. With `COCC(=O)Nc1ccc(-c2cnn3c(-c4cccc(NC(=O)c5cccc(C(F)(F)F)c5)c4)ccnc23)cc1` [Example 229, N-[3-(3-{4-[(methoxyacetyl)amino]phenyl}pyrazolo[1,5-a]pyrimidin-7-yl)phenyl]-3-(trifluoromethyl)benzamide], the inhibition at 10 µM was 83%. Further, the pIC50 under setting [1] was 6.93. For `CN(C)CCCc1cc2nccc(-c3cccc(NC(=O)c4cccc(C(F)(F)F)c4)c3)n2n1` [Example 110, N-(3-{2-[3-(dimethylamino)propyl]pyrazolo[1,5-a]pyrimidin-7-yl}phenyl)-3-(trifluoromethyl)benzamide], the inhibition at 10 µM came to 24%. Further, the pIC50 under setting [1] is less than 5.00. `COCCCNC(=O)c1cnn2c(-c3cccc(NC(=O)c4cccc(C(F)(F)F)c4)c3)ccnc12` [Example 56, N-(3-methoxypropyl)-7-(3-{[3-(trifluoromethyl)benzoyl]amino}phenyl)pyrazolo[1,5-a]pyrimidine-3-carboxamide]: the inhibition at 10 µM turned out to be 60%. Further, the pIC50 under setting [1] was 6.00. With `CCOC(=O)c1cnn2c(-c3cccc(NC(=O)CC(C)(C)C)c3)ccnc12` [Example 225, ethyl7-{3-[(3,3-dimethylbutanoyl)amino]phenyl}pyrazolo[1,5-a]pyrimidine-3-carboxylate], the inhibition at 10 µM is 7%. Also, under setting [1], the pIC50 is less than 5.00. As to `Cc1ccc(C(=O)Nc2cccc(-c3ccnc4c(-c5nn[nH]n5)cnn34)c2)cc1C(F)(F)F` [Example 66, 4-methyl-N-{3-[3-(2H-tetrazol-5-yl)pyrazolo[1,5-a]pyrimidin-7-yl]phenyl}-3-(trifluoromethyl)benzamide], the inhibition at 10 µM is 18%. Under setting [1], the pIC50 was less than 5.00. `O=C(Nc1cccc(-c2ccnc3c(-c4ccncc4)cnn23)c1)Nc1cccc(C(F)(F)F)c1` [Example 192, N-[3-(3-pyridin-4-ylpyrazolo[1,5-a]pyrimidin-7-yl)phenyl]-N′-[3-(trifluoromethyl)phenyl]urea]: the inhibition at 10 µM is 72%. The pIC50 under setting [1] was 5.89. As to `CCOC(=O)c1cnn2c(-c3cccc(NC(=O)c4ccc(Br)s4)c3)ccnc12` [Example 223, ethyl7-(3-{[(5-bromo-2-thienyl)carbonyl]amino}phenyl)pyrazolo[1,5-a]pyrimidine-3-carboxylate], the inhibition at 10 µM is 47%. The pIC50 under setting [1] was less than 5.00.
